{"source": "patent US5811398A", "about": "“Platelet aggregation inhibitors containing C-terminal aminergic side chain amino acid residues” (G. D. Searle & Co., priority 1995, dated 1998)", "tested_on": "ADP-induced platelet aggregation in dog platelet-rich plasma (PRP)", "test": "In-Vitro Platelet Aggregation in PRP", "type": "cell-based", "details": "aggregation induced by ADP (50 μm final concentration), 1 minute preincubation at 37° C.", "method": "In-Vitro Platelet Aggregation in PRP\nHealthy male or female dogs were fasted for 8 hours prior to drawing blood; then 30 ml whole blood was collected using a butterfly needle and 30 cc plastic syringe with 3 ml of 0.129M buffered sodium citrate (3.8%). The syringe was rotated carefully as blood was drawn to mix the citrate. Platelet-rich plasma (PRP) was prepared by centrifugation at 975×g for 3.17 minutes at room temperature, allowing the centrifuge to coast to a stop without braking. The PRP was removed from the blood with a plastic pipette and placed in a plastic capped, 50 ml Corning conical sterile centrifuge tube which was held at room temperature. Platelet poor plasma (PPP) was prepared by centrifuging the remaining blood at 2000×g for 15 minutes at room temperature allowing the centrifuge to coast to a stop without braking. The PRP was adjusted with PPP to a count of 2-3×10^8 platelets per ml. 400 μl of the PRP preparation and 50 μl of the compound to be tested or saline were preincubated for 1 minute at 37° C. in a BioData aggregometer (BioData, Horsham, Pa.). 50 μl of adenosine 5'-diphosphate (ADP) (50 μm final concentration) was added to the cuvettes and the aggregation was monitored for 1 minute. […] Results are calculated as follows: [formula]\nThe assay results for the compound of Example 1 and its median inhibitory concentration (IC50) is recorded in Table I."}
{"smiles": "N=C(N)c1ccc(NC(=O)CCC(=O)N[C@@H](CC(=O)O)C(=O)N[C@@H](CCCCN)C(=O)O)cc1", "note": "[Example 1, N-[4-[[4-(aminoiminomethyl)phenyl]amino]-1,4-dioxobutyl]-L-aspartyl]-L-lysine bistrifluoroacetate]", "values": [{"measurement": "IC50", "result": 180, "unit": "nM"}]}
